For test [1], the target named is T1, human MCH receptor (Homo sapiens, UniProt Q99705). The test is described as follows: Radiolabeled MCH-R binding assay: inhibition of [125I]-human MCH (Phe13, Tyr19 substituted) binding to cell membranes (filter or SPA format). Further details: expressed in transfected cells. The procedure:
Cell membranes were prepared on ice. Each T-75 flask was rinsed twice with 10 ml of Enzyme-free Cell Dissociation Buffer (Specialty Media, Lavallette, N.J.), and the cell monolayer was detached in an additional 10 ml of Enzyme-free Cell Dissociation Buffer by incubation at room temperature for 10 minutes. Dissociated cells were centrifuged (500×g for 10 minutes at 4° C.), resuspended in 5 ml homogenization buffer (10 mM Tris-HCl, pH 7.4, 0.01 mM Pefabloc, 10 μM phosphoramidon, 40 μg/ml bacitracin) and then homogenized using a glass homogenizer (10–15 strokes). The homogenate was centrifuged for 10 minutes (1,000×g at 4° C.). The resulting supernatant was then centrifuged at 38,700×g for 15 minutes at 4° C. Pelleted membranes were resuspended (passed through 25 gauge needle 5 times), snap-frozen on liquid nitrogen, and stored at −80° C. until use.
Binding was performed in a 96-well filter assay or Scintillation Proximity Assay (SPA)-based format using cell membranes from a stable CHO or HEK-293 cell line expressing the MCH receptor. For the filter assay, reactions were performed at 20° C. for 1 hour in a total volume of 0.2 ml containing: 0.05 ml of membrane suspension (˜3 μg protein), 0.02 ml of [^125I]-human MCH (Phe^13, Tyr^19 substituted; 30 pM), 0.01 ml of competitor and 0.12 ml of binding buffer (50 mM Tris-HCl, pH 7.4, 10 mM MgCl2, 2 mM EDTA, 200 μg/ml bacitracin, 1 μM phosphoramidon).
Bound radioligand was separated by rapid vacuum filtration (Packard Filtermate 96-well cell harvester) through GF/C filters pretreated for 1 hour with 1% polyethylenimine. After application of the membrane suspension to the filter, the filters were washed 3 times with 3 ml each of ice-cold 50 mM Tris-HCl, pH 7.4, 10 mM MgCl2, 2 mM EDTA, 0.04% Tween 20 and the bound radioactivity on the filters was quantitated by scintillation counting (TopCount device).
For the SPA-based assay, WGA-PVT beads (NEN Life Sciences Products) were resuspended in Dulbecco's PBS with calcium and magnesium (500 mg beads in 4 ml PBS). For each 96-well assay plate, 0.18 ml of beads was pre-coated with MCH receptor by mixing with 0.2 ml MCH receptor CHO cell membranes (˜0.2–4 mg protein) and 1.5 ml SPA assay buffer (50 mM Tris-HCl, pH 7.4, 10 mM MgCl2, 2 mM EDTA, 0.1% BSA, 12% glycerol). The suspension was mixed gently for 20 minutes, 12.3 ml of assay buffer and protease inhibitors were added (final concentration given): 2 μg/ml leupeptin, 10 μM phosphoramidon, 40 μg/ml bacitracin, 5 μg/ml aprotinin, 0.1 mM Pefabloc.
Coated beads were kept on ice until use. For each well, 0.145 ml of beads were added to Optiplate assay plates (Packard 6005190), followed by 0.002–0.004 ml of competitor and 0.05 ml of [^125I]-human MCH (Phe^13, Tyr^19 substituted; 30 pM). Binding reactions were allowed to proceed at room temperature for 3 hours. Quantitation was performed by scintillation counting (TopCount device).

Test [2] addresses T1, human MCH receptor. Description: Aequorin bioluminescence functional assay in 293-AEQ17 cells transfected with human MCH receptor. It is filed as cell-based. Further details: expressed in transfected cells; host or cells: 293-AEQ17 (aequorin-expressing HEK-293 reporter line), transient lipofectamine transfection, pcDNA-3 vector; Activity Activation %: concentration or dose not given beside the values. To be noted: for % Activation at 10 μM: Table 1, aequorin functional assay. The procedure:
The aequorin bioluminescence assay is a reliable test for measuring the activity of G protein-coupled receptors that couple through the Gα protein subunit family consisting of Gq and Gll and leads to the activation of phospholipase C, mobilization of intracellular calcium and activation of protein kinase C.
Following approximately 40 hours of expression the apo-aequorin in the cells was charged for 4 hours with coelenterazine (10 μM) under reducing conditions (300 μM reduced glutathione) in ECB buffer (140 mM NaCl, 20 mM KCl, 20 mM HEPES-NaOH [pH=7.4], 5 mM glucose, 1 mM MgCl2, 1 mM CaCl2, 0.1 mg/ml bovine serum albumin).
The cells were harvested, washed once in ECB medium and resuspended to 500,000 cells/ml. 100 μl of cell suspension (corresponding to 5×10^4 cells) was then injected into the test plate containing MCH or MCH analogs, and the integrated light emission was recorded over 30 seconds, in 0.5 second units. 20 μL of lysis buffer (0.1% final Triton X-100 concentration) was then injected and the integrated light emission recorded over 10 seconds, in 0.5 second units. The “fractional response” values for each well were calculated by taking the ratio of the integrated response to the initial challenge to the total integrated luminescence including the Triton X-100 lysis response.

[3] abbreviates: Table 5, position 10 modification, read-out: Activity IC50.
Where [4] appears, read: Table 3, N-methyl-amino acid analogs.
Setting [5] is: Table 5, position 10 modification.
Setting [6] is: Table 6, position 13 modification.
Setting [7] is: Table 7, combinations and position 8.
The mark [8] stands for this setting: Table 1, SPA based assay, read-out: Binding Assay IC50.

pEC50, pIC50: −log10 of the molar value. Where two headings read alike, the source gives them in different places. Where a SMILES comes first, the peptide text is derived from it. Bridges are numbered along the chain shown (N, C = ends).

T1 sequence (Q99705 whole entry): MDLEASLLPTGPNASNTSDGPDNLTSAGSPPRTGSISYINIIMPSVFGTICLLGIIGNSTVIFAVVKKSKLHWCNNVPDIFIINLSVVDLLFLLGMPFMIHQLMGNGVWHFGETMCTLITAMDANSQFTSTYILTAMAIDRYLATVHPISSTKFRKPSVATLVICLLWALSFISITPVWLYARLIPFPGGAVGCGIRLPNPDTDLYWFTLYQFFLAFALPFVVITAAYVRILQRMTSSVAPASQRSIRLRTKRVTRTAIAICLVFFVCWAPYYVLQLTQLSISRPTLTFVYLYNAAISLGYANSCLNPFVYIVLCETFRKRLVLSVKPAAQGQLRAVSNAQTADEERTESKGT

With `CSCC[C@@H]1NC(=O)[C@@H](NC(=O)[C@H](CCCNC(=N)N)NC(C)=O)CSSC[C@@H](C(N)=O)NC(=O)[C@@H]2CCCN2C(=O)[C@H](CCCNC(=N)N)NC(=O)[C@H](Cc2ccc(O)cc2)NC(=O)[C@H](C(C)C)NC(=O)[C@H](CCCNC(=N)N)NC(=O)CNC(=O)[C@H](CC(C)C)NC1=O` [compound 7], the pIC50 at human MCH receptor [1] (Table 2, D-amino acid analogs, read-out: Activity IC50) was 9.30; at human MCH receptor [1] (Table 3, N-methyl-amino acid analogs, read-out: Activity IC50) it was 8.85; at human MCH receptor [1] (setting [3]), 9.30. Also, the “% Activation at 10 μM” value on human MCH receptor [2] came to 123%. For the same molecule, the “Activity Activation %” value at human MCH receptor [2] (Table 2, D-amino acid analogs) is on record as 99%; at human MCH receptor [2] (setting [4]), 99%; at human MCH receptor [2] (Table 4, position 6 modification) it was 99%; at human MCH receptor [2] (setting [5]), 99%; on human MCH receptor [2] (setting [6]), 99%; at human MCH receptor [2] (setting [7]), 99%. Also, the pEC50 was 7.70 on human MCH receptor [2] (Table 2, D-amino acid analogs); 7.70 on human MCH receptor [2] (setting [4]); 7.70 on human MCH receptor [2] (setting [5]); 7.70 at human MCH receptor [2] (setting [6]); 7.70 at human MCH receptor [2] (setting [7]).

Take `CSCC[C@@H]1NC(=O)[C@@H](NC(=O)[C@H](CCCNC(=N)N)NC(C)=O)CSSC[C@@H](C(=O)N[C@@H](Cc2ccc(O)cc2)C(N)=O)NC(=O)[C@@H]2CCCN2C(=O)[C@H](CCCNC(=N)N)NC(=O)[C@H](Cc2ccccc2)NC(=O)[C@H](C(C)C)NC(=O)[C@H](CCCNC(=N)N)NC(=O)CNC(=O)[C@H](CC(C)C)NC1=O` [compound 8] (Ac-RCMLGRVFRPCY-NH2; disulfide 2-11): the pIC50 at human MCH receptor [1] (setting [8]) was 9.80. The “% Activation at 10 μM” value on human MCH receptor [2] is 123%.

`CSCC[C@@H]1NC(=O)[C@@H](NC(C)=O)CSSC[C@@H](C(N)=O)NC(=O)[C@@H]2CCCN2C(=O)[C@H](CCCNC(=N)N)NC(=O)[C@H](Cc2ccc(O)cc2)NC(=O)[C@H](C(C)C)NC(=O)[C@H](CCCNC(=N)N)NC(=O)CNC(=O)[C@H](CC(C)C)NC1=O` [compound 9]: at human MCH receptor [1] (setting [8]), the pIC50 is 8.80. For the same molecule, the “% Activation at 10 μM” value on human MCH receptor [2] is recorded as 74%.

With `CSCC[C@@H]1NC(=O)[C@@H](NC(=O)[C@H](CCCNC(=N)N)NC(=O)[C@H](CC(C)C)NC(=O)[C@H](CCSC)NC(=O)[C@H](CC(=O)O)NC(=O)[C@H](Cc2ccccc2)NC(=O)[C@@H](N)CC(=O)O)CSSC[C@@H](C(N)=O)NC(=O)[C@@H]2CCCN2C(=O)[C@H](CCCNC(=N)N)NC(=O)[C@H](Cc2ccc(O)cc2)NC(=O)[C@H](C(C)C)NC(=O)[C@H](CCCNC(=N)N)NC(=O)CNC(=O)[C@H](CC(C)C)NC1=O` [compound 10] (H-DFDMLRCMLGRVYRPC-NH2; disulfide 7-16), the pIC50 on human MCH receptor [1] (setting [8]) is 9.52. At human MCH receptor [2], the “% Activation at 10 μM” value turned out to be 99%.

As for `CSCC[C@@H]1NC(=O)[C@@H](NC(=O)[C@H](CCCNC(=N)N)NC(C)=O)CSSC[C@@H](C(N)=O)NC(=O)[C@@H]2CCCN2C(=O)[C@H](CCCNC(=N)N)NC(=O)[C@H](Cc2ccc(O)cc2)NC(=O)[C@H](C(C)C)NC(=O)[C@H](CCCNC(=N)N)NC(=O)[C@@H]2CCCN2C(=O)[C@H](CC(C)C)NC1=O` [compound 50], at human MCH receptor [1] (setting [3]), the pIC50 was 6.15. For the same molecule, at human MCH receptor [2] (setting [5]), the “Activity Activation %” value is given as 4%.

As for `CSCC[C@@H]1NC(=O)[C@@H](NC(=O)[C@H](CCCNC(=N)N)NC(C)=O)CSSC[C@@H](C(N)=O)NC(=O)[C@@H]2CCCN2C(=O)[C@H](CCCNC(=N)N)NC(=O)[C@H](Cc2ccc(O)cc2)NC(=O)[C@H](C(C)C)NC(=O)[C@H](CCCNC(=N)N)NC(=O)[C@H](CCCCN)NC(=O)[C@H](CC(C)C)NC1=O` [compound 53], the pIC50 on human MCH receptor [1] (setting [3]) is 6.96. In addition, the “Activity Activation %” value on human MCH receptor [2] (setting [5]) amounted to 25%.

Turning to `CSCC[C@@H]1NC(=O)[C@@H](NC(=O)[C@H](CCCNC(=N)N)NC(C)=O)CSSC[C@@H](C(N)=O)NC(=O)[C@@H]2CCCN2C(=O)[C@H](CCCNC(=N)N)NC(=O)[C@H](Cc2ccc(O)cc2)NC(=O)[C@H](C(C)C)NC(=O)[C@H](CCCNC(=N)N)NC(=O)[C@H](CCC(=O)O)NC(=O)[C@H](CC(C)C)NC1=O` [compound 54], on human MCH receptor [1] (setting [3]), the negative logarithm of the IC50 (pIC50) was 6.72. Also, the “Activity Activation %” value at human MCH receptor [2] (setting [5]) is 12%.

What is called pIC50 is the IC50 on a negative log10 scale, so that one unit is a factor of ten. What is called pEC50 is the EC50 on a negative log10 scale, so that one unit is a factor of ten.

The values above are taken from patent publication US7220720B2, “Melanin-concentrating hormone analogs” (Merk & Co., Inc., priority 2000, dated 2007).
